# Patent US20120196875A1, “PHARMACEUTICAL COMPOSITIONS FOR TREATMENT OF RESPIRATORY AND INFLAMMATORY DISEASES” (BOEHRINGER INGELHEIM INTERNATIONAL GMBH, priority 2010, published 2012)
# Test system: Dunkin-Harley guinea pigs (OVA broncho-constriction)
# Assay: OVA-induced bronchospasm in sensitized, anaesthetized guinea pigs (modified Konzett-Rössler method, pyrilamin pre-treatment)
# Format: in vivo, guinea pig
# Description: Male and female Dunkin-Harley guinea pigs were obtained from the Experimental Animal Breeding Centre of Harlan Winkelmann (Germany). After fasting overnight, but with free access to drinking water, animals with body weight of 400-500 g were used.
# Bronchospasm was recorded with a modified version of the method of Konzett-Röβler (described by Walland et al, in “Compensation of muscarinic bronchial effects of talsaclidine by concomitant sympathetic activation in guinea pigs”, European Journal of Pharmacology, Volume 330, Issue 2-3, 9 July 1997, Pages 213-219). The animals were ventilated by means of a piston pump (starling ventilator, Hugo Sachs Elektronik, Germany) at a stroke volume of 1 ml/100 g body weight and at a rate of 60 strokes per min. The tubing which connected the tracheal cannula with the ventilator was provided with a branch leading to the bronchospasm transducer (bronchospasm transducer 7020, Ugo Basile, Italy). The air flow measurement is based on the hot wire anemometer principle. Any air flow will reduce the temperature of the wire, thereby decreasing its resistance in proportion of the flow. As the wire element is one arm of a Weaststone bridge, variations in resistance generate a proportional voltage output which feeds the amplifier/recording system (Notocord-hem, Notocord, France). Blood pressure and heart rate are monitored from a carotid artery in order to check the anesthesia and the variability of the preparation.
# Guinea pigs were sensitized on 2 consecutive days with 20 μg ovalbumin (OVA) (Sigma, St. Louis, Mo.) and 20 mg Al(OH)3 in 0.5 mL saline, which were administered subcutaneously. Experiments, which included OVA challenge, were conducted 2 weeks after sensitization. Approximately 1 hour before OVA challenge, the animals were anaesthetized with an intraperitoneal injection of 50 mg/kg pentobarbital. Anesthesia was prolonged by intravenous infusion of pentobarbital (15 mg/kg/h) via the jugular vein. A tracheal cannula was introduced after tracheotomy for artificial ventilation. The internal jugular vein was cannulated for drug injection while the left carotid artery was cannulated for measuring blood pressure and heart rate. The test compounds or combinations of compounds were administered orally 2 hours before the OVA challenge. Pyrilamin (anti-histaminic) is injected intravenously at 2 mg/kg, 6 minutes before OVA challenge in order to record the non histamine-related bronchospasm. The OVA challenge induces mast cell degranulation responsible for the bronchospasm due to the release into the lung of inflammatory mediators such as histamine, leukotrienes, prostaglandins and tromboxanes. The pre-treatment of the guinea pigs with pyrilamin prevents the part of the bronchospasm induced by histamine (around 40 to 50% of the bronchospasm). 30 Minutes after the beginning of air flow and blood pressure measurements, bronchoconstriction is triggered by an OVA challenge given at a fixed dose of 50 μg/kg inhaled.
# The control group comprises 12 guinea-pigs, test compounds comprise 2 to 4 guinea-pigs. At the end of the experiment, animals are euthanized by an overdose of pentobarbital (100 mg/kg i.v.).
# OVA challenge in control guinea-pigs induces an overflow of 33 (±10) ml which is used as 100% bronchospasm. Bronchoprotection of the drug (i.e. inhibition of OVA broncho-constriction) is expressed as a percentage of inhibition of the increase in overflow induced by OVA in the control animals.
# [1] = CRTH2 antagonist (1) 0.001 mg/kg p.o. alone
# [2] = CRTH2 antagonist (1) 0.003 mg/kg p.o. alone
# [3] = CRTH2 antagonist (1) 0.01 mg/kg p.o. alone
# [4] = CRTH2 antagonist (1) 0.03 mg/kg p.o. alone
# [5] = CRTH2 antagonist (1) 0.1 mg/kg p.o. alone
# [6] = CRTH2 antagonist (1) 0.3 mg/kg p.o. alone
# [7] = CRTH2 antagonist (1) 1.0 mg/kg p.o. alone
# [8] = CRTH2 antagonist (1) 3.0 mg/kg p.o. alone
# [9] = CRTH2 antagonist (1) 10.0 mg/kg p.o. alone
Structure (SMILES),bronchoprotection [1] [%],overflow [1] [mL],bronchoprotection [2] [%],overflow [2] [mL],bronchoprotection [3] [%],overflow [3] [mL],bronchoprotection [4] [%],overflow [4] [mL],bronchoprotection [5] [%],overflow [5] [mL],bronchoprotection [6] [%],overflow [6] [mL],bronchoprotection [7] [%],overflow [7] [mL],bronchoprotection [8] [%],overflow [8] [mL],bronchoprotection [9] [%],overflow [9] [mL],"overflow (Roflumilast 0.03 mg/kg p.o. alone, 2 hours before OVA challenge) [mL]","bronchoprotection (Roflumilast 0.03 mg/kg p.o. alone, 2 hours before OVA challenge, inhibition of OVA-induced overflow vs control) [%]"
"CN(C)c1nc(Cc2ccc(NC(=O)c3ccc(C(F)(F)F)cc3)cc2)nc(N(C)C)c1CC(=O)O [CRTH2 antagonist (1), [4,6-bis(dimethylamino)-2-(4-(4-(trifluoromethyl)benzamido)-benzyl)pyrimidin-5-yl]acetic acid]",0,38,0,35,0,40,0,33,0,41,24,25,42,19,64,12,70,10,–,–
"O=C(Nc1c(Cl)cncc1Cl)c1ccc(OC(F)F)c(OCC2CC2)c1 [Roflumilast, roflumilast, reference compound]",–,–,–,–,–,–,–,–,–,–,–,–,–,–,–,–,–,–,28,15
